pEC50: −log10 of the molar value. Where two headings read alike, the source gives them in different places.
Assays:
BT-474 cells [1] = assay: Single concentration primary screen of ADC library, ATP content, BT-474 cells 2D and 3D; conditions: 5 µM; for hit in primary screen (decreasing ATP content by 50% or more compared to vehicle treated cells): BT-474 tumor cells, 48 h, 2D and 3D; for selectivity for BT-474 cells over MCF-10A cells in primary screen: 3D culture conditions
MCF-10A cells [2] = assay: Single concentration primary screen of ADC library, ATP content, MCF-10A cells 2D and 3D; type: cell-based, human; conditions: MCF-10A normal cells, 5 µM, 48 h
Procedure: For single concentration point primary screens, the BT-474 cells were seeded at 3000 cells/well (in RPMI+10% FBS+PSG medium) and the MCF-10A cells at 1000 cells per well (in 50/50 DMEM/F12, 5% FHS, 0.5 µg/mL hydrocortisone, 5 µg/mL insulin, 5 ng/mL rhEGF, PSG) in 96-well Corning #3595 (for 2D) or Corning #7007 (for 3D) plates. Dilution plates were made by diluting the compounds 1∶1 with 50% medium/50% DMSO to yield a final concentration of 5 µM per well.

[3] = system: wild type K-Ras colon cancer cells; set-up: method as in PMID 23555746; conditions: 3D spheroids in laminin-rich extracellular matrix, concomitant reduction in EGFR levels; cited from earlier work
BT-474 cells [4] = assay: Cytotoxicity concentration-response assay (CellTiter GLO, cellular ATP) in BT-474 cells cultured in 2D or 3D
MCF-10A cells [5] = assay: Cytotoxicity concentration-response assay (CellTiter GLO, cellular ATP) in MCF-10A cells cultured in 2D or 3D; type: cell-based, human; conditions: MCF-10A 3D spheroid, 48 h treatment, read-out: EC50 (concentration at which the compound reduces cell viability by 50%)
Procedure: To generate 3D miniature cultures for HTS, cells were seeded at a cell number observed to consistently form a single, uniformly round spheroid.
(§1) To quantitate cellular ATP as a measure of viability, 50 µL of CellTiter GLO reagent (Promega) was added to each well. […] In addition, spheroids were triturated six times to promote complete lysis.

BT-474+HF+HE co-cultures = assay: Concentration-response cell viability assay (CellTiterGLO) in BT-474+HF+HE co-cultures; type: cell-based, human; conditions: for pEC50: Homo sapiens, 48 h, 15-point concentration response
Procedure: (§2) For co-cultures in 3D, trypsinized cells were counted and mixed together to be seeded into 96-well round-bottom ultralow attachment plates (Corning #7007). As indicated in the legends, either the total cell number was held at 3000 cells per well, or 3000 BT-474 cells were seeded together with 1500 HFs and/or HUVECs. As we observed with the monotypic spheroids, the co-cultures also spontaneously formed one spheroid per well during the 48-hour incubation period. By analysis of ATP levels, the co-culture spheroids were viable for 5 days without a medium change or addition of supplements. All the co-cultures were maintained in a 1∶1∶1 mixture of RPMI:DMEM:EGM-2 complete media. The 2D co-cultures were plated at the same ratio of cells in the same mixed medium, but in flat bottom 96-well tissue culture plates (Corning #3595). Forty-eight hours after plating, the 2D or 3D cells were used for cytotoxicity assays, screening, or immunostaining as described in subsequent Methods sections.
as §1
(§3) For the co-culture screens, serial dilution primary screening was used. The cells were seeded in 96-well plates at 1500 HF+1500 HUVEC cells per well for the human fibroblast and human endothelial cell (HF+HE) co-cultures (in EGM-2 complete medium), or 750 HF+750 HUVEC+1500 BT-474 for the BT-474+HF+HE co-cultures (in 1∶1 RPMI+10% FBS+PSG: EGM-2 complete medium). Cells seeded in Corning #7007 round bottom, ultra-low attachment plates formed a single 3D spheroid per well while cells seeded in Corning #3595 flat bottom, tissue culture-treated plates attached as a 2D monolayer. […] Spheroid lysis was further aided by mixing 100 µl of volume using the STAR liquid handler, and then 75 µl was transferred to a Greiner Lumitrac 96-well plate for luminescence reading on a PE Envision plate reader. For the monolayer plates, 75 µl was transferred to the Greiner Lumitrac plates per well, and also read on the PE Envision.

[6] = system: HF cells cultured as 3D spheroids; assay: Cell viability assay of HF spheroids (Figure S1A)
Procedure: All spheroids were cultured and treated as in Figure 3A–B. Figure represents 2 experiments performed in duplicate and table utilizes EC50 values from Figure 3 as a direct comparison. B, immunofluorescent and brightfield overlay images of BT-474 cells (3 k cells, brightfield), HEs (1 k cells, green) and HFs (1 k cells, red) cultured as spheroids for 48 h before addition of vehicle (0.1% DMSO, left panel) or 10 µM Lapatinib for 48 h (right panel).

HF+HE co-cultures = assay: Concentration-response cell viability assay (CellTiterGLO) in HF+HE co-cultures; type: cell-based, human; conditions: for pEC50: Homo sapiens, 48 h, 15-point concentration response
Procedure: as §2, §1, §3

[7] = Homo sapiens, BT-474, 48 h, read-out: EC50 (concentration at which the compound reduces cell viability by 50%), BT-474 3D spheroid, 48 h treatment

| Structure (SMILES) | hit in primary screen (decreasing ATP content by 50% or more compared to vehicle treated cells) (BT-474 cells [1]) | hit in primary screen (decreasing ATP content by 50% or more compared to vehicle treated cells) (MCF-10A cells [2]) | pEC50 (BT-474 cells [4]; [7]) | selectivity for BT-474 cells over MCF-10A cells in primary screen (BT-474 cells [1]) | pEC50 (MCF-10A cells [5]; Homo sapiens, MCF-10A, 48 h) | other results |
| --- | --- | --- | --- | --- | --- | --- |
| COc1cc2ncnc(Nc3ccc(F)c(Cl)c3)c2cc1OCCCN1CCOCC1 [gefitinib] | hits under both 2D and 3D culture conditions | only under 2D culture conditions | – | – | – | – |
| COc1cc2ncnc(Nc3cccc(Cl)c3)c2cc1OC [AG-1478, Tyrphostin AG1478] | – | – | – | – | – | sensitivity in 3D spheroids [3]: decreased sensitivity |
| Cc1nc(Nc2ncc(C(=O)Nc3c(C)cccc3Cl)s2)cc(N2CCN(CCO)CC2)n1 [dasatinib] | hits under both 2D and 3D culture conditions | only under 2D culture conditions | > 5.00 | – | – | pEC50 (BT-474 cells [4]; Homo sapiens, BT-474, read-out: calculated EC50 values in confirmatory dose response assays, BT-474, culture condition (2D/3D) not given): 5.10 to 5.22; pEC50 (BT-474 cells [4]; read-out: EC50 (concentration at which the compound reduces cell viability by 50%), BT-474 3D spheroid, 48 h treatment): 5.09 |
| CC[C@]1(O)C[C@@H]2CN(CCc3c([nH]c4ccccc34)[C@@](C(=O)OC)(c3cc4c(cc3OC)N(C)[C@H]3[C@@](O)(C(=O)OC)[C@H](OC(C)=O)[C@]5(CC)C=CCN6CC[C@]43[C@@H]65)C2)C1 [vinblastine] | – | – | – | slight selectivity | – | – |
| CS(=O)(=O)CCNCc1ccc(-c2ccc3ncnc(Nc4ccc(OCc5cccc(F)c5)c(Cl)c4)c3c2)o1 [lapatinib] | hits under both 2D and 3D culture conditions | only under 2D culture conditions | – | – | < 5.30 | pEC50 (MCF-10A cells [5]): 5.01; difference in sensitivity between 3D BT-474+HF+HE and 3D HF+HE co-cultures (BT-474+HF+HE co-cultures; 3D, ratio of EC50 values): about 30 fold; pEC50 (BT-474+HF+HE co-cultures; BT-474+HF+HE 2D co-culture): 5.46; pEC50 (BT-474+HF+HE co-cultures; BT-474+HF+HE 3D co-culture): 6.05; fold less sensitive than BT-474 cancer cell spheroids [6]: 10 fold; sensitivity of BT-474 spheroids compared to BT-474+HF+HE co-cultures (BT-474 cells [4]; 3D spheroids): more sensitive; fold less sensitive than BT-474 cancer cell spheroids (HF+HE co-cultures; HF+HE spheroids, 3D, Figure S1A): 100 fold; pEC50 (HF+HE co-cultures; HF+HE 2D co-culture): 5.57; pEC50 (HF+HE co-cultures; HF+HE 3D co-culture): 4.52 |
| CCC1=C[C@@H]2CN(C1)Cc1c([nH]c3ccccc13)[C@@](C(=O)OC)(c1cc3c(cc1OC)N(C)[C@H]1[C@@](O)(C(=O)OC)[C@H](OC(C)=O)[C@]4(CC)C=CCN5CC[C@]31[C@@H]54)C2 [vinorelbine] | – | we did not identify vinorelbine as a “hit” | 5.28 | slight selectivity | < 4.00 | – |

— article PMC4172726, “3-Dimensional Culture Systems for Anti-Cancer Compound Profiling and High-Throughput Screening Reveal Increases in EGFR Inhibitor-Mediated Cytotoxicity Compared to Monolayer Culture Systems” (PLoS ONE, 2014)
